In PubChem BioAssay (NCI):
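Compound exposure: 48 hours, 5 concentrations, 96-well plates. Here, GI50 denotes the concentration required for 50% inhibition of growth. The concentration for full growth arrest is given as TGI.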

Experiments:
Experiment in all cases: DTP human tumour cell line panel, 48 h
HT29 colon = tested on: HT29 colon
SNB-19 CNS = tested on: SNB-19 CNS
MALME-3M melanoma = tested on: MALME-3M melanoma
SF-268 CNS = tested on: SF-268 CNS
KM12 colon = tested on: KM12 colon
SF-539 CNS = tested on: SF-539 CNS
HL-60(TB) leukemia = tested on: HL-60(TB) leukemia
K-562 leukemia = tested on: K-562 leukemia
DU-145 prostate = tested on: DU-145 prostate
BT-549 breast = tested on: BT-549 breast
SR leukemia = tested on: SR leukemia
COLO 205 colon = tested on: COLO 205 colon
HCT-116 colon = tested on: HCT-116 colon
M14 melanoma = tested on: M14 melanoma
HOP-92 NSCLC = tested on: HOP-92 NSCLC
SK-OV-3 ovarian = tested on: SK-OV-3 ovarian
HCT-15 colon = tested on: HCT-15 colon
NCI-H460 lung = tested on: NCI-H460 lung
HCC-2998 colon = tested on: HCC-2998 colon
NCI-H522 lung = tested on: NCI-H522 lung
786-0 renal = tested on: 786-0 renal
NCI-H23 lung = tested on: NCI-H23 lung
MCF7 breast = tested on: MCF7 breast
MOLT-4 leukemia = tested on: MOLT-4 leukemia
SK-MEL-2 melanoma = tested on: SK-MEL-2 melanoma
PC-3 prostate = tested on: PC-3 prostate
OVCAR-3 ovarian = tested on: OVCAR-3 ovarian
UACC-62 melanoma = tested on: UACC-62 melanoma
MDA-MB-435 = tested on: MDA-MB-435
RPMI-8226 leukemia = tested on: RPMI-8226 leukemia
SF-295 CNS = tested on: SF-295 CNS

Structure (SMILES): CCC(=C/[C@H](C)C/C=C/C(C)=C/[C@@H](C)C(=O)[C@@H](C)[C@H](O)[C@@H](C)CC)/C=C/[C@H]1OC(=O)C=C[C@H]1C
- TGI (HT29 colon): 1.2 µM
- GI50 (SNB-19 CNS): < 0.01 µM
- TGI (SNB-19 CNS): 1.29 µM
- GI50 (MALME-3M melanoma): < 0.01 µM
- GI50 (SF-268 CNS): < 0.01 µM
- TGI (SF-268 CNS): 1.46 µM
- GI50 (KM12 colon): < 0.01 µM
- TGI (KM12 colon): 0.113 µM
- GI50 (SF-539 CNS): < 0.01 µM
- TGI (SF-539 CNS): 0.439 µM
- GI50 (HL-60(TB) leukemia): < 0.01 µM
- TGI (HL-60(TB) leukemia): < 0.04 µM
- GI50 (K-562 leukemia): < 0.01 µM
- TGI (K-562 leukemia): < 0.01 µM
- GI50 (DU-145 prostate): < 0.01 µM
- TGI (DU-145 prostate): 2.69 µM
- GI50 (BT-549 breast): < 0.01 µM
- GI50 (SR leukemia): < 0.01 µM
- GI50 (COLO 205 colon): < 0.01 µM
- TGI (COLO 205 colon): 0.0684 µM
- GI50 (HCT-116 colon): < 0.01 µM
- TGI (HCT-116 colon): 0.0102 µM
- GI50 (M14 melanoma): < 0.01 µM
- TGI (M14 melanoma): 0.132 µM
- GI50 (HOP-92 NSCLC): < 0.01 µM
- TGI (HOP-92 NSCLC): 0.722 µM
- GI50 (SK-OV-3 ovarian): < 0.0221 µM
- TGI (SK-OV-3 ovarian): 3.44 µM
- GI50 (HCT-15 colon): < 0.01 µM
- TGI (HCT-15 colon): 1.17 µM
- GI50 (NCI-H460 lung): < 0.01 µM
- TGI (NCI-H460 lung): 1.1 µM
- GI50 (HCC-2998 colon): < 0.01 µM
- TGI (HCC-2998 colon): < 0.01 µM
- GI50 (NCI-H522 lung): < 0.01 µM
- TGI (NCI-H522 lung): < 0.01 µM
- GI50 (786-0 renal): < 0.01 µM
- TGI (786-0 renal): 0.642 µM
- GI50 (NCI-H23 lung): < 0.01 µM
- TGI (NCI-H23 lung): 1.5 µM
- GI50 (MCF7 breast): < 0.01 µM
- TGI (MCF7 breast): 1.18 µM
- GI50 (MOLT-4 leukemia): < 0.01 µM
- GI50 (SK-MEL-2 melanoma): < 0.01 µM
- TGI (SK-MEL-2 melanoma): < 0.01 µM
- GI50 (PC-3 prostate): < 0.01 µM
- TGI (PC-3 prostate): 1.57 µM
- GI50 (OVCAR-3 ovarian): < 0.01 µM
- GI50 (UACC-62 melanoma): < 0.01 µM
- TGI (UACC-62 melanoma): 0.0755 µM
- GI50 (MDA-MB-435): < 0.01 µM
- TGI (MDA-MB-435): 0.0256 µM
- GI50 (RPMI-8226 leukemia): < 0.01 µM
- TGI (RPMI-8226 leukemia): 0.0421 µM
- GI50 (SF-295 CNS): < 0.01 µM
- TGI (SF-295 CNS): 1.36 µM
